US11046647B2, “Activators of the unfolded protein response” (The Board of Trustees of the University of Illinois, priority 2018, dated 2021)

How the values were obtained:
OVCAR-3 cells = settings: OVCAR-3 orthotopic xenograft
T47D, TYS and TDG cells = test: MTS proliferation assay (4 days), T47D, TYS and TDG; type: cell-based, human
Procedure: FIG. 30 compares the ability of BHPI and test compounds to inhibit proliferation of T47D, TYS and TDG cells. T47D cells were in medium containing 10 FBS (which contains estrogen), TYS-4 and TDG-1 cells were in medium containing 10% cd-FBS (estrogen depleted). Cells are plated at 2,000 cells/well in 96 well plates. After 24 hours in medium containing FBS or charcoal-dextran treated FBS (depleted of endogenous estrogens), the indicated concentration of each compound (in DMSO at 1/1000th of the volume of medium) was added. After 2 days the medium was changed, and the compounds were added again. After 2 additional days (4 days total) MTS assays are used to evaluate cell proliferation. (n=6 ±S.E.M.).

MCF-7 tumors = test: MCF-7 orthotopic tumor model; type: in vivo, mouse; settings: large established MCF-7 tumors; SERK-F6 10 or 40 mg/kg p.o. daily; fulv. 5 mg/mouse s.c. weekly
Procedure: FIG. 39. SERK-F6 eradicates wild-type ERα tumors via hyperactivation of aUPR. a, MCF-7 orthotopic tumors were established in Nu/J ovariectomized mice supplemented with a 60 day E2 pellet (0.36 mg) and grown to ˜400 mm^3 (28 days to establish), randomized, then treated with vehicle daily (n=3), vehicle weekly (n=3), fulv. weekly (5 mg/mouse, s.c., n=6), SERK-F6 daily (10 or 40 mg/kg p.o.). Vehicle arms were averaged. p values: *: p≤0.05, **: p≤0.01, ***: p≤0.001, ****: p≤0.0001. Tumor images were taken at the end of the study (day 21) and are representative of all tumors (n=6). b-e, MCF-7 cells were orthotopically bi-laterally grafted and tumors were grown until total tumor burden was ˜400 mm^3 prior to daily treatment with vehicle or SERK-F6 (40 mg/kg p.o.). Mice (n=5 per arm) were sacrificed after 3 days (b,c) and 7 days (d,e) and tumors harvested. […] Vinculin (Vin) was used as a loading control. […] Error bars represent S.E.M.
To probe the efficacy of SERK-F6 for killing ERα positive tumors, large MCF-7 tumors were grown and then intervened with therapy. […] The mice were then sacrificed prior to complete tumor eradication.

[1] = system: TYS and TDG breast cancer cells; test: Killing of TYS and TDG breast cancer cells by endocrine therapy drugs; type: cell-based, human
TDG cells = test: Trypan Blue exclusion cell death assay, TDG / TDG-Luc; type: cell-based, human; settings: 24 hours
Text: (§1) TRYPAN BLUE: For decades, viable cells have been measured by their ability to exclude the dye Trypan Blue. […] Dead cells, which have lost membrane integrity, take up the dye and are blue. Thus, the percentage of dead cells is the percentage of cells that are Trypan Blue positive out of the total cell population. Quantitative assessment of Trypan Blue uptake uses a cell counter from Fisher. Since the assay is instrument based, there is no observer bias in determining the percentage of Trypan Blue positive cells.
(§2) TRYPAN BLUE ASSAYS: Assays are performed on cells in 6 well plates: 300,000 cells are plated in each well of a 6-well plate in 3 ml of medium. After 24 hours, the DMSO vehicle or the indicated compound is added (in 1000th of the vol.) The cells incubated for an additional 24 hours, and then harvested in 0.25 ml of trypsin, followed after harvest by 0.75 ml of medium. The cells are spun down and resuspended in 100-200 μl of medium left that is over the cell pellet (resuspend cells by pipetting up and down a few times). Add 10 μl to 10 μl of trypan blue. Then 10 μl is inserted into the counting slide. After inserting the slide into the Fisher TC20 counting is automatic (these many cells are needed because an accurate ratio of Trypan Blue positive to Trypan Blue negative cells requires about 200 cells in the field the instrument counts).
The Trypan Blue cell death assay was used to evaluate the ability of the active enantiomer of C-105 [(−)-105] to kill ERα positive TDG-Luc cells. For all studies, 300,000 TDG-Luc cells/well in 10% FBS were plated in a 6-well plate in triplicate. 24 hours after plating, the indicated concentrations the active enantiomer of (−)-105, or BHPI (top) ICI, or OHT (Lower left) or (+)-105 (lower right) were added. After 24 hours, the cells were harvested, and the % dead cells was determined by automated Trypan Blue exclusion using the Countess II automated hemocytometer. Percentage of viable cells was calculated by doing 100-(Cell Death %). (n=3±SEM).
TDG cells were incubated for 24 hours with 75 nM of BHPI or 75 nM of each of the indicated test compounds: 4, 6 and (±)-105 (enantiomers not separated). Cell death was determined using the instrument-based Trypan Blue exclusion assay. Structures are in the Synthesis section. […] (n=3±SEM).

TYS cells = test: Trypan Blue exclusion cell death assay, TYS / TYS-Luc; type: cell-based, human; settings: 24 hours
Text: as §1, §2
The Trypan Blue cell death assay was used to evaluate the ability of the active enantiomer of 105 (−) [(−)-105] to kill ERα positive MCF-7 and TYS-Luc, human breast cancer cells. 300,000 T47D cells/well in 10% FBS were plated in a 6-well plate in triplicate. 24 hours after plating, the indicated concentrations of BHPI, or the active enantiomer 105 (−) of C-105 [(−)-105] was added. After 24 hours, the cells were harvested, and the % dead cells was determined by automated Trypan Blue exclusion using the Countess II automated hemocytometer. Percentage of viable cells was calculated by doing 100-(Cell Death %). (n=3±SEM).
TYS cells were incubated for 24 hours with 35 nM of BHPI or 35 nM of each of the indicated test compounds: 2, 4, and 105. Cell death was determined using the instrument-based Trypan Blue exclusion assay.
TYS cells were incubated for 24 hours with 50 nM of BHPI or 50 nM of each of the indicated test compounds: 4, 6 and 105. Cell death was determined using the instrument-based Trypan Blue exclusion assay. (n=3±SEM).

[2] = system: ERα Negative MCF-10A cells; test: Trypan Blue exclusion cell death assay, MCF-10A; type: cell-based; settings: 75 nM, 24 hours
Text: as §1, §2
In FIG. 28, neither the test compounds nor BHPI kill non-tumorigenic ERα Negative MCF-10A breast cells. ERα Negative MCF-10A cells were maintained for 24 hours in DMSO vehicle or 75 nM of BHPI or 75 nM of each of the indicated test compounds: 4, 6 and 105. Cell death was determined using the instrument-based Trypan Blue exclusion assay. (n=3±SEM).

T47D cells [3] = test: Trypan Blue exclusion cell death assay, T47D / T47D-Luc; type: cell-based, human; settings: 75 nM, 24 hours
Text: as §1
as §2, with “After inserting the slide into the Fisher TC20 counting is automatic (these many cells are needed because an accurate ratio of Trypan Blue positive to Trypan Blue negative cells requires about 200 cells in the field the instrument counts).” left out
The Trypan Blue cell death assay was used to compare the ability of the active (−) enantiomer of C-105 and BHPI to kill estrogen receptor α (ERα) positive T47D, human breast cancer cells expressing luciferase (T47D-Luc cells). […] After 24 hours, the cells were harvested, and the % dead cells was determined by automated Trypan Blue exclusion using the Countess II automated hemocytometer. Percentage of viable cells was calculated by doing 100-(Cell Death %). […]
T47D cells were incubated for 24 hours with 75 nM of BHPI or 75 nM of each of the indicated test compounds: 4 and 6. Cell death was determined using the instrument-based Trypan Blue exclusion assay. […]
T47D cells were treated for 24 hours with 100 nM BHPI, or with 100 nM of each of the test compounds: 6, 8, and 105. […] Cell death was determined using the instrument-based Trypan Blue exclusion assay. […]

T47D cells [4] = settings: 24 hours; up to 1,000 nM; FACS annexin V-FITC/PI
Procedure: One such change is loss of plasma membrane polarity. This is monitored using Annexin V. Dying cells also take up the dye propidium iodide. Propidium iodide (PI) fluoresces when it is intercalated into DNA. These assays monitor cells at specific stages of cell death.
FLOW CYTOMETRY (FITC) ASSAYS: Cells were seeded in 12-well plates, 75,000 cells/well, and allowed to adhere overnight. The next day, the indicated concentrations of raptinal (positive control), (−)-105, (±)-105, and (+)-105 were added and allowed to incubate at 37° C. for 24 hours (Final Volume: 1 ml, 0.1% DMSO). After incubation, cells were harvested and resuspended in 350 μl of cold Annexin binding buffer (10 mM HEPES, 140 mM NaCl, 2.5 mM CaCl2, pH 7.4) premixed with Annexin V-FITC and PI dyes. Samples were analyzed on a BD Biosciences LSRII flow cytometer, and data analysis was performed using FSC Express Version 5-6. Cell death was assessed relative to a DMSO treated control.
T47D, human breast cancer cells were plated at 75,000 cells/well. The next day, DMSO vehicle, 10 μM raptinal (control for 100% cell death), or 0, 50, 100 500 and 1,000 nM of BHPI or (±)-105, or 1,000 nM ICI/fulvestrant or 1,000 nM OHT was added. After 24 hours viable cells were determined by FACS using annexin V-FITC and propidium iodide dyes. (n=3 independent experiments ±SEM).
75,000 ERα positive T47D, human breast cancer cells, were plated/well. The next day, DMSO vehicle, 10 μM raptinal (control for 100% cell death), or 100 500 and 1,000 nM of (+)-105, or (−)-105 was added. After 24 hours viable cells were determined by FACS using annexin V-FITC and propidium iodide dyes. (n=1).

CC(=O)O[C@H]1C(=O)[C@@]2(C)[C@H]([C@H](OC(=O)c3ccccc3)[C@]3(O)C[C@H](OC(=O)[C@H](O)[C@@H](NC(=O)c4ccccc4)c4ccccc4)C(C)=C1C3(C)C)[C@]1(OC(C)=O)CO[C@@H]1C[C@@H]2O [paclitaxel]
tumor growth / detectability (OVCAR-3 cells): ineffective

COc1ccc(C2(c3ccc(O)cc3)C(=O)Nc3c(C)cccc32)cc1 (stereo not shown) [Compound 2, 3-(4-hydroxyphenyl)-3-(4-methoxyphenyl)-7-methylindolin-2-one]
effectiveness in killing compared with BHPI (T47D, TYS and TDG cells): more effective than BHPI

C[C@]12CC[C@@H]3c4ccc(O)cc4C[C@@H](CCCCCCCCC[S+]([O-])CCCC(F)(F)C(F)(F)F)[C@H]3[C@@H]1CC[C@@H]2O (stereo partly shown) [fulvestrant, reference compound]
tumor response (MCF-7 tumors): dramatic effects against these large and established tumors are not obtained
ability to kill TYS and TDG cells [1]: no ability at all to kill
killing of TDG-Luc cells, dose response (TDG cells): do not kill

COc1ccc(C2(c3ccc(O)cc3)C(=O)Nc3c(C(F)(F)F)cccc32)cc1 (stereo not shown) [Compound 4, 3-(4-hydroxyphenyl)-3-(4-methoxyphenyl)-7-(trifluoromethyl)indolin-2-one]
ability to kill TYS cells compared to BHPI (TYS cells; 35 nM): greatly increased ability to kill
ability to kill TYS cells compared to BHPI (TYS cells; 50 nM): increased ability to kill
cell death of MCF-10A cells [2]: neither BHPI nor any of the test compounds induce significant death
ability to kill T47D cells compared to BHPI (T47D cells [3]): greatly increased ability to kill
ability to kill TDG cells compared to BHPI (TDG cells; 75 nM): greatly increased ability to kill
effectiveness in killing compared with BHPI (T47D, TYS and TDG cells): more effective than BHPI

Cc1cccc2c1NC(=O)C2(c1ccc(O)cc1)c1ccc(OC(F)(F)F)cc1 (stereo not shown) [Compound 6, 3-(4-hydroxyphenyl)-7-methyl-3-(4-(trifluoromethoxy)phenyl)indolin-2-one]
cell death of MCF-10A cells [2]: neither BHPI nor any of the test compounds induce significant death
effectiveness in killing compared with BHPI (T47D, TYS and TDG cells): more effective than BHPI

CC/C(=C(\c1ccc(O)cc1)c1ccc(OCCN(C)C)cc1)c1ccccc1 [OHT, z-4-hydroxytamoxifen, reference compound]
cytotoxic versus cytostatic phenotype (T47D cells [4]): cytostatic
killing of TDG-Luc cells, dose response (TDG cells): do not kill

CC/C(=C(\c1ccccc1)c1ccc(OCCN(C)C)cc1)c1ccccc1 [tamoxifen]
ability to kill TYS and TDG cells [1]: no ability at all to kill
